According to patent US20260263603A1, “PRODRUGS, PRODRUG COMPOSITIONS AND RELATED METHODS” (Praesidia Biotherapeutics Inc., priority 2023, published 2026):
Where two headings read alike, the source gives them in different places.

Columns and labels:
in vitro [1] = details: for half-life at 5 μM: plasma; for Human Plasma Stability t½ min: 37° C., 5 μM, t½ > 240 min considered stable
Method: Rat and human plasma were obtained from qualified vendors. […] The assay was performed in duplicate.

[2] = 37° C., 5 μM; for Chemical Stability, pH 4.5: pH 4.5 PBS; for Chemical Stability, pH 7.4: pH 7.4 PBS
Method: Chemical stability of the prodrug compounds was tested at pH 4.5 and pH 7.4 (pH adjusted in phosphate buffer saline). Both buffer solutions at two pHs were prepared in house. 2 μL of 500 μM stock solution of the prodrug was added to each vial containing 198 μL PBS at pH 7.4 or pH 4.5 and mixed evenly. The assay was performed in duplicate. The final concentration of the test compound was 5 μM. samples were incubated at 37° C. at 600 rpm. […] Samples from individual vials were used for the different time points. The samples were vortexed for 2 minutes and centrifuged at 3,220 g for 5 minutes at 4° C. […] of the supernatant was transferred to a new plate.

in vitro [3] = details: 0.5 mg microsome/mL, 1 mM NADPH; for Rat liver microsomal stability (RLM) t½ min: 1 uM
Method: Precipitated proteins were removed by centrifugation, followed by withdrawing and diluting the supernatant for analysis. Two positive controls and negative controls (without NADPH) were used in the study. All samples were analyzed in duplicates. LC/MS/MS was performed for detection and quantification of the test compounds. Linear regression was determined using the remaining percentage of the parent drug at each incubation time and t1/2 value was calculated.

[4] = target: Glucocorticoid receptor (GR) (Homo sapiens, UniProt P04150)
Method: Glucocorticoid receptor (GR) binding of prodrugs was determined using TR-FRET GR competitive binding assay. Three-point (0.1, 1 and 10 μM) binding was evaluated for each prodrug.

in vitro [5] = details: human, Caco-2, pH 7.4
Method: The objective of this study was to evaluate the bidirectional permeability and absorption mechanisms of the test compounds. CaCO-2 cells were cultured, and a monolayer was developed in-house in 96 well-plates over 18 days using standard protocol. The monolayer was tested for the integrity of the cell monolayer before using.
Test compounds were added to the transwell insert (apical compartment) to determine the rate of drug transport in the apical to basolateral direction. To determine the rate of drug transport in the basolateral to apical direction, the test compound was added to the receiver plate wells (basolateral compartment). Appropriate amount of HBSS (10 mM HEPES, pH 7.4) was added in both compartments for a final volume of 200 μL. The plates were incubated at 37° C. with shaking at 150 rpm on a rotary shaker for 2 hours. At the end of the transport period, 50 μL from the apical and basolateral wells were collected and 4 volume of cold acetonitrile containing internal standards (IS: 100 nM alprazolam, 200 nM labetalol, and 2 μM ketoprofen) was added to each sample to terminate the reaction. The samples were vortexed and centrifuged at 3,800 g for 20 minutes. An aliquot of 150 μL of the supernatant was used for LC/MS/MS analysis. All samples were analyzed in duplicates. Samples were analyzed through LC/MS/MS for estimating the permeability and efflux of the compounds across Caco-2 cell monolayers.

in vitro [6] = details: dog, MDCK

Chain of Glucocorticoid receptor (GR) (P04150 whole entry, species assumed): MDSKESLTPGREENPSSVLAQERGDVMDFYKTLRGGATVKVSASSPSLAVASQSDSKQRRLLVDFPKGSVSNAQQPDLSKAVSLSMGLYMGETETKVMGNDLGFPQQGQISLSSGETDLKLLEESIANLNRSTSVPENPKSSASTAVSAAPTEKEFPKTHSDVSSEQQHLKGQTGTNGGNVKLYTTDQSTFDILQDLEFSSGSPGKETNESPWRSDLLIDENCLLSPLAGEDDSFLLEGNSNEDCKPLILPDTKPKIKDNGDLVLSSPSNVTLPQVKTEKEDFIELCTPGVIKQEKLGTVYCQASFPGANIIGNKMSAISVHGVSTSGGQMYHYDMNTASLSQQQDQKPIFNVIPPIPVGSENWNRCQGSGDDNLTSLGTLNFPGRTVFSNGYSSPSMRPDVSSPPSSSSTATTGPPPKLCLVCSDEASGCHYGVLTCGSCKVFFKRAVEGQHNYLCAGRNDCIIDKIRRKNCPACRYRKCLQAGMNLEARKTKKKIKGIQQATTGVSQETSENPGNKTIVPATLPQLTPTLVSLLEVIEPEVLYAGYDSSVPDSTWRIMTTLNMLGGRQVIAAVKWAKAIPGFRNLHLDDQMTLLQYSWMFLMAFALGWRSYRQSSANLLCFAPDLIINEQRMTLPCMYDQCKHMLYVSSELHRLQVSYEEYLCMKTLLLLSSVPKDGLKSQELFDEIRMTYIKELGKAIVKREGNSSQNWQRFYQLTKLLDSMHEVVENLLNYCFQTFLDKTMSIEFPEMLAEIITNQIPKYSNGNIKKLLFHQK

## C[C@@H]1C[C@H]2[C@@H]3CCC4=CC(=O)C=C[C@]4(C)[C@@]3(F)[C@@H](O)C[C@]2(C)[C@@]1(O)/C(CO)=N\NC(=O)C(N)Cc1ccccc1 (single isomer, unassigned) [Compound IIIA]
In vitro [1]; human
  half-life at 5 μM: > 4 h
In vitro [1]; rat
  half-life at 5 μM: > 4 h
[2]
  Chemical Stability, pH 4.5: Yes
  Chemical Stability, pH 7.4: Yes
In vitro [3]
  Rat liver microsomal stability (RLM) t½ min: 0.55 h

## C[C@@H]1C[C@H]2[C@@H]3CCC4=CC(=O)C=C[C@]4(C)[C@@]3(F)[C@@H](O)C[C@]2(C)[C@@]1(O)/C(CO)=N\NC(=O)C(N)Cc1ccccc1 (single isomer, unassigned) [Compound IIIB]
In vitro [1]
  Human Plasma Stability t½ min: >4 h
[2]
  Chemical Stability, pH 4.5: Yes
  Chemical Stability, pH 7.4: Yes
In vitro [3]
  Rat liver microsomal stability (RLM) t½ min: 1.35 h
[4]; @ 0.1 uM
  GR Binding Data: 8%
[4]; @ 1 uM
  GR Binding Data: 8%
[4]; @ 10 uM
  GR Binding Data: 68%

## CC(C)C(N)C(=O)N/N=C(/CO)[C@@]1(O)[C@H](C)C[C@H]2[C@@H]3CCC4=CC(=O)C=C[C@]4(C)[C@@]3(F)[C@@H](O)C[C@@]21C (single isomer, unassigned) [Compound IVA]
In vitro [1]; human
  half-life at 5 μM: > 4 h
In vitro [1]; rat
  half-life at 5 μM: > 4 h
[2]
  Chemical Stability, pH 4.5: Yes
  Chemical Stability, pH 7.4: Yes
In vitro [3]
  Rat liver microsomal stability (RLM) t½ min: 0.583 h
[4]; @ 0.1 uM
  GR Binding Data: 4%
[4]; @ 1 uM
  GR Binding Data: 8%
[4]; @ 10 uM
  GR Binding Data: 64%
In vitro [5]
  Papp A→B at 2 h: 0.2 ×10⁻⁶ cm/s
  Papp B→A at 2 h: 4 ×10⁻⁶ cm/s

## CC(C)C(N)C(=O)N/N=C(/CO)[C@@]1(O)[C@H](C)C[C@H]2[C@@H]3CCC4=CC(=O)C=C[C@]4(C)[C@@]3(F)[C@@H](O)C[C@@]21C (single isomer, unassigned) [Compound IVB]
In vitro [1]
  Human Plasma Stability t½ min: >4 h
[2]
  Chemical Stability, pH 4.5: Yes
  Chemical Stability, pH 7.4: Yes
In vitro [3]
  Rat liver microsomal stability (RLM) t½ min: 1.8 h
[4]; @ 0.1 uM
  GR Binding Data: 3%
[4]; @ 1 uM
  GR Binding Data: 16%
[4]; @ 10 uM
  GR Binding Data: 72%

## CC(C)C(N)C(=O)N/N=C1\C=C[C@@]2(C)C(=C1)CC[C@H]1[C@@H]3C[C@@H](C)[C@](O)(C(=O)CO)[C@@]3(C)C[C@H](O)[C@@]12F (single isomer, unassigned) [Compound VA]
In vitro [1]; rat
  half-life at 5 μM: > 4 h
[2]
  Chemical Stability, pH 4.5: Yes
  Chemical Stability, pH 7.4: Yes
In vitro [3]; rat, liver microsomes, Rat liver microsomal stability (RLM) t½ min
  half-life at 1 uM: 0.733 h

## CC(C)C(N)C(=O)N/N=C1\C=C[C@@]2(C)C(=C1)CC[C@H]1[C@@H]3C[C@@H](C)[C@](O)(C(=O)CO)[C@@]3(C)C[C@H](O)[C@@]12F (single isomer, unassigned) [Compound VB]
[2]
  Chemical Stability, pH 4.5: Yes
  Chemical Stability, pH 7.4: Yes

## CCC(=O)N/N=C(\CO)[C@@]1(O)[C@H](C)C[C@H]2[C@@H]3CCC4=CC(=O)C=C[C@]4(C)[C@@]3(F)[C@@H](O)C[C@@]21C [Compound II]
In vitro [1]; human
  half-life at 5 μM: > 4 h
[2]
  Chemical Stability, pH 4.5: Yes
  Chemical Stability, pH 7.4: Yes

## C[C@@H]1C[C@H]2[C@@H]3CCC4=C/C(=N/NC(=O)[C@H](Cc5ccccc5)N(C)C)C=C[C@]4(C)[C@@]3(F)[C@@H](O)C[C@]2(C)[C@@]1(O)C(=O)CO [Compound IXA]
In vitro [1]; rat
  half-life at 5 μM: > 4 h

## C[C@@H]1C[C@H]2[C@@H]3CCC4=C/C(=N\NC(=O)[C@H](Cc5ccccc5)N(C)C)C=C[C@]4(C)[C@@]3(F)[C@@H](O)C[C@]2(C)[C@@]1(O)C(=O)CO [Compound IXB]
In vitro [1]; rat
  half-life at 5 μM: > 4 h

## CCC(=O)N/N=C1\C=C[C@@]2(C)C(=C1)CC[C@H]1[C@@H]3C[C@@H](C)[C@](O)(C(=O)CO)[C@@]3(C)C[C@H](O)[C@@]12F [Compound I]
In vitro [1]; human
  half-life at 5 μM: > 4 h
[2]
  Chemical Stability, pH 4.5: Yes
  Chemical Stability, pH 7.4: Yes

## C[C@@H]1C[C@H]2[C@@H]3CCC4=C/C(=N/NC(=O)[C@@H](N)Cc5ccccc5)C=C[C@]4(C)[C@@]3(F)[C@@H](O)C[C@]2(C)[C@@]1(O)C(=O)CO [Compound VIIA]
In vitro [6]
  Papp A→B: 0.15 ×10⁻⁶ cm/s
  Papp B→A: 1.29 ×10⁻⁶ cm/s
In vitro [1]; rat
  half-life at 5 μM: > 4 h
[2]
  Chemical Stability, pH 4.5: Yes
  Chemical Stability, pH 7.4: Yes
In vitro [5]
  Papp A→B at 2 h: 0.17 ×10⁻⁶ cm/s
  Papp B→A at 2 h: 11 ×10⁻⁶ cm/s

## C[C@@H]1C[C@H]2[C@@H]3CCC4=C/C(=N\NC(=O)[C@@H](N)Cc5ccccc5)C=C[C@]4(C)[C@@]3(F)[C@@H](O)C[C@]2(C)[C@@]1(O)C(=O)CO [Compound VIIB]
In vitro [6]
  Papp A→B: 0.12 ×10⁻⁶ cm/s
  Papp B→A: 0.87 ×10⁻⁶ cm/s
In vitro [1]; rat
  half-life at 5 μM: > 4 h
[2]
  Chemical Stability, pH 4.5: Yes
  Chemical Stability, pH 7.4: Yes
In vitro [5]
  Papp A→B at 2 h: 0.13 ×10⁻⁶ cm/s
  Papp B→A at 2 h: 9 ×10⁻⁶ cm/s

## C[C@@H]1C[C@H]2[C@@H]3CCC4=C/C(=N\NC(=O)[C@H](N)Cc5ccccc5)C=C[C@]4(C)[C@@]3(F)[C@@H](O)C[C@]2(C)[C@@]1(O)C(=O)CO [Compound VIIIB]
In vitro [1]; rat
  half-life at 5 μM: > 4 h
[4]; @ 0.1 uM
  GR Binding Data: 19%
[4]; @ 1 uM
  GR Binding Data: 26%
[4]; @ 10 uM
  GR Binding Data: 72%

## C[C@@H]1C[C@H]2[C@@H]3CCC4=C/C(=N/NC(=S)[C@@H](N)Cc5ccccc5)C=C[C@]4(C)[C@@]3(F)[C@@H](O)C[C@]2(C)[C@@]1(O)C(=O)CO [Compound X]
In vitro [6]
  Papp A→B: < 0.17 ×10⁻⁶ cm/s
  Papp B→A: 1.82 ×10⁻⁶ cm/s
In vitro [1]; rat
  half-life at 5 μM: 2.08 h
In vitro [5]
  Papp A→B at 2 h: 0.33 ×10⁻⁶ cm/s
  Papp B→A at 2 h: 4 ×10⁻⁶ cm/s

## C[C@@H]1C[C@H]2[C@@H]3CCC4=CC(=O)C=C[C@]4(C)[C@@]3(F)[C@@H](O)C[C@]2(C)[C@@]1(O)C(=O)CO [Dexamethasone, reference compound]
[4]; @ 1 nM
  GR Binding Data: 16%
[4]; @ 10 nM
  GR Binding Data: 50%
[4]; @100 nM
  GR Binding Data: 93%
